Experimental data from ChEMBL document CHEMBL3351515, “α-Hexylcinnamaldehyde inhibits the genotoxicity of environmental pollutants in the bacterial reverse mutation assay” (2014).

Assays:
Salmonella typhimurium [1] = test: Antimutagenic activity against 1,8-dinitropyrene-induced revertant colonies in Salmonella typhimurium TA98 assessed as inhibition of mutagenicity measured at 9 to 18 uM; assay type: functional, Salmonella enterica subsp. enterica serovar Typhimurium
Escherichia coli [2] = test: Antimutagenic activity against 2-aminoanthracene-induced revertant colonies in Escherichia coli WP2uvrA assessed as number of revertant colonies measured pretreatment at 90 uM (reference value: 178.7 +/- 11.8) in presence of mammalian S9 fraction; assay type: functional
Salmonella typhimurium [3] = test: Antimutagenic activity against 1-nitropyrene-induced revertant colonies in Salmonella typhimurium TA98 1,8 DNP assessed as inhibition of mutagenicity measured at 900 uM; assay type: functional, Salmonella enterica subsp. enterica serovar Typhimurium; details: Salmonella enterica
Salmonella typhimurium [4] = test: Antimutagenic activity against sodium azide-induced revertant colonies in Salmonella typhimurium TA100 assessed as number of revertant colonies measured cotreatment at 18 uM (reference value: 1588 +/- 55.6) in absence of mammalian S9 fraction; assay type: functional, Salmonella enterica subsp. enterica serovar Typhimurium
Salmonella typhimurium [5] = test: Antimutagenic activity against sodium azide-induced revertant colonies in Salmonella typhimurium TA100 assessed as number of revertant colonies measured post-treatment at 9 uM (reference value: 1909 +/- 29.7) in absence of mammalian S9 fraction; assay type: functional, Salmonella enterica subsp. enterica serovar Typhimurium
Salmonella typhimurium [6] = test: Antimutagenic activity against 2-aminoanthracene-induced revertant colonies in Salmonella typhimurium TA100 assessed as number of revertant colonies measured cotreatment at 900 uM (reference value: 457.9 +/- 16.74) in presence of mammalian S9 fraction; assay type: functional, Salmonella enterica subsp. enterica serovar Typhimurium
Escherichia coli [7] = test: Antimutagenic activity against methyl methansulfonate-induced revertant colonies in Escherichia coli WP2uvrA assessed as number of revertant colonies measured cotreatment at 180 uM (reference value: 485.3 +/- 17.5) in absence of mammalian S9 fraction; assay type: functional
Escherichia coli [8] = test: Antimutagenic activity against 2-aminoanthracene-induced revertant colonies in Escherichia coli WP2uvrA assessed as number of revertant colonies measured pretreatment at 18 uM (reference value: 178.7 +/- 11.8) in presence of mammalian S9 fraction; assay type: functional
Salmonella typhimurium [9] = test: Antimutagenic activity against 1,8-dinitropyrene-induced revertant colonies in Salmonella typhimurium TA98 assessed as inhibition of mutagenicity measured at 90 to 180 uM; assay type: functional, Salmonella enterica subsp. enterica serovar Typhimurium
Escherichia coli [10] = test: Antimutagenic activity against 2-aminoanthracene-induced revertant colonies in Escherichia coli WP2uvrA assessed as number of revertant colonies measured cotreatment at 9 uM (reference value: 366 +/- 10.3) in presence of mammalian S9 fraction; assay type: functional
Salmonella typhimurium [11] = test: Antimutagenic activity against sodium azide-induced revertant colonies in Salmonella typhimurium TA100 assessed as number of revertant colonies measured pretreatment at 90 uM (reference value: 1968 +/- 46.9) in absence of mammalian S9 fraction; assay type: functional, Salmonella enterica subsp. enterica serovar Typhimurium
Salmonella typhimurium [12] = test: Antimutagenic activity against 2-aminoanthracene-induced revertant colonies in Salmonella typhimurium TA100 assessed as number of revertant colonies measured cotreatment at 9 uM (reference value: 457.9 +/- 16.74) in presence of mammalian S9 fraction; assay type: functional, Salmonella enterica subsp. enterica serovar Typhimurium
Salmonella typhimurium [13] = test: Antimutagenic activity against 2-aminoanthracene-induced revertant colonies in Salmonella typhimurium TA100 assessed as number of revertant colonies measured post-treatment at 900 uM (reference value: 642.7 +/- 2.7) in presence of mammalian S9 fraction; assay type: functional, Salmonella enterica subsp. enterica serovar Typhimurium
Salmonella typhimurium [14] = test: Antimutagenic activity against 1-nitropyrene-induced revertant colonies in Salmonella typhimurium TA98 assessed as inhibition of mutagenicity measured at 900 uM; assay type: functional, Salmonella enterica subsp. enterica serovar Typhimurium; details: Salmonella enterica
Salmonella typhimurium [15] = test: Antimutagenic activity against sodium azide-induced revertant colonies in Salmonella typhimurium TA100 assessed as number of revertant colonies measured cotreatment at 90 uM (reference value: 1588 +/- 55.6) in absence of mammalian S9 fraction; assay type: functional, Salmonella enterica subsp. enterica serovar Typhimurium
Escherichia coli [16] = test: Antimutagenic activity against methyl methansulfonate-induced revertant colonies in Escherichia coli WP2uvrA assessed as number of revertant colonies measured cotreatment at 18 uM (reference value: 485.3 +/- 17.5) in absence of mammalian S9 fraction; assay type: functional
Escherichia coli [17] = test: Antimutagenic activity against 2-aminoanthracene-induced revertant colonies in Escherichia coli WP2uvrA assessed as number of revertant colonies measured cotreatment at 900 uM (reference value: 366 +/- 10.3) in presence of mammalian S9 fraction; assay type: functional
Escherichia coli [18] = test: Antimutagenic activity against 2-aminoanthracene-induced revertant colonies in Escherichia coli WP2uvrA assessed as number of revertant colonies measured cotreatment at 18 uM (reference value: 366 +/- 10.3) in presence of mammalian S9 fraction; assay type: functional
Salmonella typhimurium [19] = test: Antimutagenic activity against sodium azide-induced revertant colonies in Salmonella typhimurium TA100 assessed as number of revertant colonies measured post-treatment at 18 uM (reference value: 1909 +/- 29.7) in absence of mammalian S9 fraction; assay type: functional, Salmonella enterica subsp. enterica serovar Typhimurium
Salmonella typhimurium [20] = test: Antimutagenic activity against sodium azide-induced revertant colonies in Salmonella typhimurium TA100 assessed as number of revertant colonies measured pretreatment at 18 uM (reference value: 1968 +/- 46.9) in absence of mammalian S9 fraction; assay type: functional, Salmonella enterica subsp. enterica serovar Typhimurium
Escherichia coli [21] = test: Antimutagenic activity against methyl methansulfonate-induced revertant colonies in Escherichia coli WP2uvrA assessed as number of revertant colonies measured pretreatment at 9 uM (reference value: 466.7 +/- 40.4) in absence of mammalian S9 fraction; assay type: functional
Salmonella typhimurium [22] = test: Antimutagenic activity against sodium azide-induced revertant colonies in Salmonella typhimurium TA100 assessed as number of revertant colonies measured pretreatment at 180 uM (reference value: 1968 +/- 46.9) in absence of mammalian S9 fraction; assay type: functional, Salmonella enterica subsp. enterica serovar Typhimurium
Salmonella typhimurium [23] = test: Antimutagenic activity against sodium azide-induced revertant colonies in Salmonella typhimurium TA100 assessed as number of revertant colonies measured post-treatment at 900 uM (reference value: 1909 +/- 29.7) in absence of mammalian S9 fraction; assay type: functional, Salmonella enterica subsp. enterica serovar Typhimurium
Escherichia coli [24] = test: Antimutagenic activity against methyl methansulfonate-induced revertant colonies in Escherichia coli WP2uvrA assessed as number of revertant colonies measured post-treatment at 180 uM (reference value: 726.7 +/- 12.7) in absence of mammalian S9 fraction; assay type: functional
Salmonella typhimurium [25] = test: Antimutagenic activity against 2-aminoanthracene-induced revertant colonies in Salmonella typhimurium TA100 assessed as number of revertant colonies measured pretreatment at 900 uM (reference value: 481.3 +/- 5.3) in presence of mammalian S9 fraction; assay type: functional, Salmonella enterica subsp. enterica serovar Typhimurium
Escherichia coli [26] = test: Antimutagenic activity against 2-aminoanthracene-induced revertant colonies in Escherichia coli WP2uvrA assessed as number of revertant colonies measured post-treatment at 9 uM (reference value: 308 +/- 4) in presence of mammalian S9 fraction; assay type: functional
Escherichia coli [27] = test: Antimutagenic activity against 2-aminoanthracene-induced revertant colonies in Escherichia coli WP2uvrA assessed as number of revertant colonies measured pretreatment at 9 uM (reference value: 178.7 +/- 11.8) in presence of mammalian S9 fraction; assay type: functional
Salmonella typhimurium [28] = test: Antimutagenic activity against sodium azide-induced revertant colonies in Salmonella typhimurium TA100 assessed as number of revertant colonies measured pretreatment at 9 uM (reference value: 1968 +/- 46.9) in absence of mammalian S9 fraction; assay type: functional, Salmonella enterica subsp. enterica serovar Typhimurium
Salmonella typhimurium [29] = test: Antimutagenic activity against sodium azide-induced revertant colonies in Salmonella typhimurium TA100 assessed as number of revertant colonies measured cotreatment at 900 uM (reference value: 1588 +/- 55.6) in absence of mammalian S9 fraction; assay type: functional, Salmonella enterica subsp. enterica serovar Typhimurium

Compound: CCCCCC/C(C=O)=C\c1ccccc1
- inhibition (INH) (Salmonella typhimurium [1]): <25%
- Activity (Escherichia coli [2]): 152.3
- inhibition at 900 µM (Salmonella typhimurium [3]): > 40%
- Activity (Salmonella typhimurium [4]): 1501
- Activity (Salmonella typhimurium [5]): 1888
- Activity (Salmonella typhimurium [6]): 347
- Activity (Escherichia coli [7]): 448
- Activity (Escherichia coli [8]): 166.7
- inhibition (INH) (Salmonella typhimurium [9]): 25%
- Activity (Escherichia coli [10]): 336.8
- Activity (Salmonella typhimurium [11]): 1801
- Activity (Salmonella typhimurium [12]): 449.3
- Activity (Salmonella typhimurium [13]): 481.3
- inhibition at 900 µM (Salmonella typhimurium [14]): > 40%
- Activity (Salmonella typhimurium [15]): 1477
- Activity (Escherichia coli [16]): 485.3
- Activity (Escherichia coli [17]): 293.5
- Activity (Escherichia coli [18]): 330.7
- Activity (Salmonella typhimurium [19]): 1867
- Activity (Salmonella typhimurium [20]): 1861
- Activity (Escherichia coli [21]): 458.7
- Activity (Salmonella typhimurium [22]): 1797
- Activity (Salmonella typhimurium [23]): 1671
- Activity (Escherichia coli [24]): 488
- Activity (Salmonella typhimurium [25]): 365.3
- Activity (Escherichia coli [26]): 294.7
- Activity (Escherichia coli [27]): 170.7
- Activity (Salmonella typhimurium [28]): 1877
- Activity (Salmonella typhimurium [29]): 1451
